Where “and” joins values, the source holds several entries; their conditions need not be identical. Equal entries are not always repeated.
What was measured:
Format in all cases: physicochemical
[1] = 7 day stress stability, chemical stability by HPLC; conditions: for Chemical stability: 1 week stress test, conditions studied; for Sialic acid Area % (HPLC): two injections
Description: The chemical purity was measured on an Agilent HP1100 HPLC system fitted with an Agilent variable wavelength UV detector. Samples were prepared by dissolving in diluent at a concentration of 1 mg/mL before being analysed under the following HPLC conditions:
(§1) The selected Forms (5, 3 and 2) were fully characterized by PLM, XRPD, ^1H NMR and IR spectroscopy, DSC, TG/DTA, GVS (with post-GVS XRPD), Karl Fischer titration for water content and HPLC analysis for purity. All of these forms with the addition of Form 1 were also placed under a stress-stability test, at three different conditions for one week (ambient conditions, 40° C. and 75% relative humidity, 80° C.). In addition to this, an approximate solubility test was conducted on the different solid forms using a solvent addition method.
(§2) All four Forms (1, 2, 3 and 5) were placed under 7 day stress stability testing. This was carried out by placing the four forms under three different conditions for one week. Their physical stability was then analyzed by comparing the diffractograms and the chemical stability was checked by HPLC.

[2] = 7 day stress stability, physical form by XRPD
Description: XRPD analysis was carried out on a Panalytical X′pert Pro, scanning the samples between 3 and 35° […]. The material was gently ground and loaded onto a multi well plate with Kapton or mylar polymer film to support the sample. The multi well plate was then loaded into a Panalytical diffractometer running in transmission mode and analysed, using the following experimental conditions.
as §1, §2

[3] = Gravimetric Vapour Sorption (GVS) with post-GVS XRPD; conditions: for Polymorphic form after GVS (XRPD): material reclaimed after GVS run
Description: Approximately 10-20 mg of sample was placed into a mesh vapour sorption balance pan and loaded into an IGASorp Moisture Sorption Analyser balance by Hiden Analytical. The sample was subjected to a ramping profile from 40-90% relative humidity (RH) at 10% increments, maintaining the sample at each step until a stable weight had been achieved (98% step completion). After completion of the sorption cycle, the sample was dried using the same procedure to 0% RH, and finally taken back to the starting point of 40% RH. The weight change during the sorption/desorption cycles were plotted, allowing for the hygroscopic nature of the sample to be determined.

[4] = Approximate aqueous solubility of the solid forms (solvent addition method)
Description: as §1
Approximately 50 mg of each form (1, 2, 3 and 5) was weighed into a 2 ml vial. 20 μl aliquots of deionized water was added to each vial until complete dissolution of the solid was observed. The volume was noted down and the approximate water solubility calculated.

HPLC-UV chemical purity = conditions: summary Table 13
Description: The chemical purity was measured on an Agilent HP1100 HPLC system fitted with an Agilent variable wavelength UV detector. Samples were prepared by dissolving in diluent at a concentration of 1 mg/mL before being analysed under the following HPLC conditions: […]

[5] = Thermogravimetric/Differential Thermal Analysis (TG/DTA)
Description: Approximately, 10 mg of material was weighed into an open aluminium pan and loaded into a simultaneous thermogravimetric/differential thermal analyser (TG/DTA) and held at room temperature. The sample was then heated at a rate of 10° C./min from 25° C. to 300° C. during which time the change in sample weight was recorded along with any differential thermal events (DTA). Nitrogen was used as the purge gas, at a flow rate of 300 cm^3/min.

[6] = Differential Scanning Calorimetry (DSC)
Description: Approximately, 5 mg of material was weighed into an aluminium DSC pan and sealed non-hermetically with a pierced aluminium lid. The sample pan was then loaded into a Seiko DSC6200 (equipped with a cooler) cooled and held at 25° C. Once a stable heat-flow response was obtained, the sample and reference were heated to 210° C. at a scan rate of 10° C./min and the resulting heat flow response monitored. Nitrogen was used as the purge gas, at a flow rate of 50 cm^3/min.

[7] = PLM (morphology) of the solid forms
[8] = Approximate solvent solubility screen (aliquot addition); conditions: for solubility: 40 °C, thermodynamic from solid
Description: Approximately 10 mg of sialic acid was used to check the solubility in 31 different solvents or solvent mixtures.
50 μl aliquots of solvent were added in attempts to dissolve the sialic acid. The volume range used varied between 50 μl and 2 ml. Dissolution was aided by heating to 40° C. and shaking the vial between aliquots.
The mixture of solvents Ethanol:Acetone:Ethyl acetate (85:12:3 wt %) will be referred to as “Ethynol” hereafter.

[9] = 1 week under ambient conditions
[10] = stability under ambient conditions

SMILES: CC(=O)N[C@H]1[C@H]([C@H](O)[C@H](O)CO)OC(O)(C(=O)O)C[C@@H]1O (stereo partly shown) [An embodiment of Form 2, N-acetylneuraminic acid]
- Chemical stability [1]: good
- Physical form (XRPD) after stress ([2]; 1 week at 40° C./75% RH): converts to Form 1
- Physical form (XRPD) after stress ([2]; 1 week at 80° C.): stable
- Physical form (XRPD) after stress [2, 9]: mixture of Forms 1 and 2
- Hygroscopicity (GVS) [3]: slightly hygroscopic
- GVS weight loss on sorption ([3]; RH>50%): ca. 1.5%
- Polymorphic form after GVS (XRPD) [3]: transformed to Form 1

SMILES: CC(=O)N[C@H]1[C@H]([C@H](O)[C@H](O)CO)OC(O)(C(=O)O)C[C@@H]1O (stereo partly shown) [Form 2, N-acetylneuraminic acid]
- Chemical stability [1]: good chemical stability
- Sialic acid Area % (HPLC) ([1]; after 1 week under 40° C., 75% RH): 99.405% and 99.360%
- Acetic acid Area % (HPLC) ([1]; after 1 week under 80° C.): 0.075% and 0.072%
- Sodium Pyruvate Area % (HPLC) ([1]; after 1 week under 80° C.): 0.076% and 0.077%
- Sialic acid Area % (HPLC) ([1]; after 1 week under 80° C.): 99.348% and 99.372%
- Sialic acid Area % (HPLC) ([1]; after 1 week under ambient conditions): 99.561% and 99.605%
- HPLC purity of recovered samples ([1]; after 1 week, all three conditions (ambient; 40° C./75% RH; 80° C.)): higher than 99.4%
- Area % Acetic acid (HPLC) ([1]; stability under 40° C., 75% RH): 0.000%
- Area % N-acetyl-D-glucosamine (HPLC) ([1]; stability under 40° C., 75% RH): 0.000%
- Area % N-acetyl-D-mannosamine (HPLC) ([1]; stability under 40° C., 75% RH): 0.000%
- Area % Sodium Pyruvate (HPLC) ([1]; stability under 40° C., 75% RH): 0.000%
- Area % Acetic acid (HPLC) ([1]; stability under 80° C.): 0.000%
- Area % N-acetyl-D-glucosamine (HPLC) ([1]; stability under 80° C.): 0.000%
- Area % N-acetyl-D-mannosamine (HPLC) ([1]; stability under 80° C.): 0.000%
- Area % Sialic acid (HPLC) ([1]; stability under 80° C.): 99.601% and 99.566%
- Area % Sodium Pyruvate (HPLC) ([1]; stability under 80° C.): 0.000% and 0.044%
- Area % Acetic acid (HPLC) [1, 10]: 0.000%
- Area % N-acetyl-D-glucosamine (HPLC) [1, 10]: 0.000%
- Area % N-acetyl-D-mannosamine (HPLC) [1, 10]: 0.000%
- Area % Sodium Pyruvate (HPLC) [1, 10]: 0.000%
- Physical form (XRPD) after stress ([2]; 1 week at 40° C./75% RH): converts to Form 1
- Physical form (XRPD) after stress ([2]; 1 week at 80° C.): stable
- Physical form (XRPD) after stress [2, 9]: stable
- Stability - XRPD post Stability ([2]; at 80° C.): Form 2 at 80 °C
- Stability - XRPD post Stability ([2]; at RT): Form 1 + 2 at RT
- Approximate solubility ([4]; aqueous): 105000 µg/mL
- Aqueous Solubility, Solubility in g/L ([4]; deionized water, approximate, solvent addition): 105 g/L
- DVS (hygroscopicity) [3]: Goes to form 1
- Hygroscopicity (GVS) [3]: slightly hygroscopic
- XRPD post DVS [3]: change
- Polymorphic form after GVS (XRPD) [3]: converted to Form 1
- DVS, RH at which the form goes to form 1 ([3]; relative humidity): RH >50%
- HPLC (purity) (HPLC-UV chemical purity): 99.70% and 99.80%
- TGA Decomposition temperature [5]: at 178.5 °C
- DSC (thermal events) Endotherm [6]: 181.0° ° C.
- PLM (morphology), particle size [7]: <30 μm
- PLM (morphology) ([7]; particle shape): Small needles

SMILES: CC(=O)N[C@H]1[C@H]([C@H](O)[C@H](O)CO)OC(O)(C(=O)O)C[C@@H]1O (stereo partly shown) [Sialic acid, N-acetylneuraminic acid]
- solubility ([8]; aqueous with cosolvent or surfactant or cyclodextrin, solvent: Water:Acetic Acid (80:20) v/v): > 213000 µg/mL
- solubility ([8]; organic solvent or mixture, solvent: 1,4-Dioxane): < 4900 µg/mL
- solubility ([8]; organic solvent or mixture, solvent: 1-Butanol): < 6100 µg/mL
- solubility ([8]; organic solvent or mixture, solvent: 2-Ethoxy ethanol): < 6800 µg/mL
- solubility ([8]; organic solvent or mixture, solvent: 2-Methyl THF): < 5200 µg/mL
- solubility ([8]; organic solvent or mixture, solvent: 2-propanol): < 5000 µg/mL
- solubility ([8]; organic solvent or mixture, solvent: Acetic acid): < 5400 µg/mL
- solubility ([8]; organic solvent or mixture, solvent: Acetone): < 5600 µg/mL
- solubility ([8]; organic solvent or mixture, solvent: Acetone:Ethanol (50:50) v/v): < 5100 µg/mL
- solubility ([8]; organic solvent or mixture, solvent: Acetone:Ethyl Acetate (50:50) v/v): < 4800 µg/mL
- solubility ([8]; organic solvent or mixture, solvent: Acetone:Water (90:10) v/v): < 5100 µg/mL
- solubility ([8]; organic solvent or mixture, solvent: Acetonitrile): < 4800 µg/mL
- solubility ([8]; organic solvent or mixture, solvent: Dichloromethane): < 5100 µg/mL
- solubility ([8]; organic solvent or mixture, solvent: Diisopropyl ether): < 4800 µg/mL
- solubility ([8]; organic solvent or mixture, solvent: Dimethylacetamide): > 72600 µg/mL
- solubility ([8]; organic solvent or mixture, solvent: Dimethylsulfoxide): > 301000 µg/mL
- solubility ([8]; organic solvent or mixture, solvent: Ethanol): < 5100 µg/mL
- solubility ([8]; organic solvent or mixture, solvent: Ethanol:Water (90:10) v/v): < 5200 µg/mL
- solubility ([8]; organic solvent or mixture, solvent: Ethyl acetate): < 5800 µg/mL
- solubility ([8]; organic solvent or mixture, solvent: Ethynol (Ethanol:Acetone:Ethyl acetate 85:12:3 wt %)): < 5300 µg/mL
- solubility ([8]; organic solvent or mixture, solvent: Isopropyl acetate): < 6500 µg/mL
- solubility ([8]; organic solvent or mixture, solvent: Methanol): < 5200 µg/mL
- solubility ([8]; organic solvent or mixture, solvent: Methylethyl ketone): < 5700 µg/mL
- solubility ([8]; organic solvent or mixture, solvent: Methylisobutyl ketone): < 6300 µg/mL
- solubility ([8]; organic solvent or mixture, solvent: N-Methyl-2-pyrrolidone): > 72100 µg/mL
- solubility ([8]; organic solvent or mixture, solvent: Nitromethane): < 6000 µg/mL
- solubility ([8]; organic solvent or mixture, solvent: Tetrahydrofuran): < 5300 µg/mL
- solubility ([8]; organic solvent or mixture, solvent: Toluene): < 5900 µg/mL
- solubility ([8]; organic solvent or mixture, solvent: n-Heptane): < 5300 µg/mL
- solubility ([8]; organic solvent or mixture, solvent: tert-Butylmethyl ether): < 4600 µg/mL
- solubility ([8]; solvent: Water): > 212000 µg/mL
- Visual Observation ([8]; solvent: 1,4-Dioxane): Partial Solubility
- Visual Observation ([8]; solvent: 1-Butanol): Partial Solubility
- Visual Observation ([8]; solvent: 2-Ethoxy ethanol): Partial Solubility
- Visual Observation ([8]; solvent: 2-Methyl THF): Partial Solubility
- Visual Observation ([8]; solvent: 2-propanol): Partial Solubility
- Visual Observation ([8]; solvent: Acetic acid): Partial Solubility
- Visual Observation ([8]; solvent: Acetone): Low Solubility
- Visual Observation ([8]; solvent: Acetone:Ethanol (50:50) v/v): Partial Solubility
- Visual Observation ([8]; solvent: Acetone:Ethyl Acetate (50:50) v/v): Low Solubility
- Visual Observation ([8]; solvent: Acetone:Water (90:10) v/v): Partial Solubility
- Visual Observation ([8]; solvent: Acetonitrile): Low Solubility
- Visual Observation ([8]; solvent: Dichloromethane): Partial Solubility
- Visual Observation ([8]; solvent: Diisopropyl ether): Low Solubility
- Visual Observation ([8]; solvent: Dimethylacetamide): Soluble
- Visual Observation ([8]; solvent: Dimethylsulfoxide): Soluble
- Visual Observation ([8]; solvent: Ethanol): Partial Solubility
- Visual Observation ([8]; solvent: Ethanol:Water (90:10) v/v): Partial Solubility
- Visual Observation ([8]; solvent: Ethyl acetate): Extremely low
- Visual Observation ([8]; solvent: Ethynol (Ethanol:Acetone:Ethyl acetate 85:12:3 wt %)): Partial Solubility
- Visual Observation ([8]; solvent: Isopropyl acetate): Extremely low
- Visual Observation ([8]; solvent: Methanol): Partial Solubility
- Visual Observation ([8]; solvent: Methylethyl ketone): Partial Solubility
- Visual Observation ([8]; solvent: Methylisobutyl ketone): Low Solubility
- Visual Observation ([8]; solvent: N-Methyl-2-pyrrolidone): Soluble
- Visual Observation ([8]; solvent: Nitromethane): Low Solubility
- Visual Observation ([8]; solvent: Tetrahydrofuran): Low Solubility
- Visual Observation ([8]; solvent: Toluene): Partial Solubility
- Visual Observation ([8]; solvent: Water): Soluble
- Visual Observation ([8]; solvent: Water:Acetic Acid (80:20) v/v): Soluble
- Visual Observation ([8]; solvent: n-Heptane): Extremely low
- Visual Observation ([8]; solvent: tert-Butylmethyl ether): Extremely low
